We go through three compounds from US12673106B2, “Modulators of nuclear receptor subfamily 4 group A member 1 (NR4A1) and uses thereof” (University of Florida Research Foundation, Incorporated, priority 2020, dated 2026).

The target in data set [1] is T1, NR4A1 (Homo sapiens, UniProt P22736). Kind of data set: E3 ligase-mediated NR4A1 degradation in transfected HEK293T cells (immunoblotting). The note with it: HEK293T transfected with NR4A1, with or without CRBN or VHL; 3 μM, 6 hrs. The format is cell-based. The protocol: FIG. 4A. Efficiency of NR4A1-Ps in protein degradation using 3 examples of NR4A1-Ps based on CRBN (NR-C91, 92, 93) and 4 based on VHL (NR-V03, 04, 07, 50), with NR-V04 showing the best efficacy in NR4A1 degradation. FIG. 4B. NR4A1 degradation is mediated by targeted E3 ligases. HEK293T cells were transfected with NR4A1, with or without overexpression of CRBN or VHL. 36 hrs after transfection, cells were treated with 3 μM of NR-C91 or NR-V04 for 6 hrs for immunoblotting.
Developing NR4A1-Ps. Due to the diverse function of NR4A1 in different cancer types, both agonistic and antagonistic ligands of NR4A1 are of interest in development (25). […] 4 cytosporone-B-based and 10 celastrol-based NR4A1-Ps using polyethylene glycol (PEG) linkers of various length have already been synthesized (FIG. 3 showing several examples).

Data set [2] deals with T1, NR4A1. The data set can be described thus: Degradation of endogenous NR4A1 in T47D breast cancer cells. The following applies: 1 μM. The format is cell-based. Further details: degrade endogenous NR4A1 in T47D breast cancer cells; endogenous in cells; host or cells: T47D breast cancer cells.
The nature of data set [3]: Toxicity and body weight in tumor-bearing mice (FIG. 11). The format is in vivo. The following applies: 0.75 mg/kg celastrol twice weekly for 3 weeks. The protocol:
Body weight was recorded weekly.

The target of data set [4] is T1, NR4A1. Details: degrade endogenous NR4A1 in T47D breast cancer cells; endogenous in cells; host or cells: T47D breast cancer cells. The note with it: NR4A1 ligand used as warhead; cited from earlier work.

The structures appear in SMILES notation.

T1 sequence (P22736 whole entry, species assumed): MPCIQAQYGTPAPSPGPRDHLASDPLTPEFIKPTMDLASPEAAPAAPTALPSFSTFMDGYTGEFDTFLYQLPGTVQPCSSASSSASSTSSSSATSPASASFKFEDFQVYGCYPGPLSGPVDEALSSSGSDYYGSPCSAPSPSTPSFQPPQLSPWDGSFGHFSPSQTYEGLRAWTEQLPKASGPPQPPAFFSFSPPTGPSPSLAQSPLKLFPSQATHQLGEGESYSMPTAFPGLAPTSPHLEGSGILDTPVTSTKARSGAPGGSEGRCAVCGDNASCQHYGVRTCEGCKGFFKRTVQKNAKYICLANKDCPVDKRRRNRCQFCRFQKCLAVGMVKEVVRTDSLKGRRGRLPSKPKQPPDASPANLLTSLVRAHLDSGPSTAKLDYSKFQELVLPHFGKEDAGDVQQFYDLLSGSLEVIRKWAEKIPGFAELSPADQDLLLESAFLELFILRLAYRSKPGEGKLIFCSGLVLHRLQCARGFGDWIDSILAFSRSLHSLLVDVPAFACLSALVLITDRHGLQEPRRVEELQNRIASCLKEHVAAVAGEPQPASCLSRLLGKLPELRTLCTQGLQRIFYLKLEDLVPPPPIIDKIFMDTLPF

Consider `CC1=C(O)C(=O)C=C2C1=CC=C1[C@@]2(C)CC[C@@]2(C)[C@@H]3C[C@](C)(C(=O)NCCOCCNc4cccc5c4C(=O)N(C4CCC(=O)NC4=O)C5=O)CC[C@]3(C)CC[C@]12C` (stereo partly shown) [NR-C91], for which the “NR4A1 degradation with overexpression of the corresponding E3 ligase” value in data set [1] was “overexpression of their corresponding E3 ligases facilitated NR4A1-P-mediated degradation of NR4A1”. For the same compound, the NR4A1 degradation result in data set [2] is “led to the degradation of NR4A1, but not as efficiently as NR-V04”.

With `CC1=C(O)C(=O)C=C2C1=CC=C1[C@@]2(C)CC[C@@]2(C)[C@@H]3C[C@](C)(C(=O)O)CC[C@]3(C)CC[C@]12C` [celastrol], the body weight result in data set [3] is “significant body weight change”.

In general, Kd refers to the constant that tells how readily two partners part at equilibrium. Take `CCCCCCCC(=O)c1c(O)cc(O)cc1CC(=O)OCC` [cytosporone-B]: the dissociation constant (Kd) in data set [4] was 1680 nM.
